# Reference: patent EP0091090A2, “Bipyridine substituted imidazolidene copper complex and its use in food-producing animals, and bipyridine, 2,2'-(2-imidazolidinylidene) di-copper complex and use in animals” (INTERNATIONAL MINERALS & CHEMICAL CORPORATION, priority 1982, dated 1983)
# Test system: rumen fluid batch culture
# Assay: Rumen fluid batch culture test: volatile fatty acid, gas (CH4 + H2), protein and amino acid accumulation (Example 2)
# Assay type: cell-based, steers
# Set-up: HFo (formate) / HAc (acetate) / HPr (propionate) / HiBu (isobutyrate) / HBu (butyrate) / HiVal (isovalerate) / Total / Caloric Value of H2 / Caloric Value of HFo / Caloric Value of HAc / Caloric Value of HPr / Caloric Value of HiBu / Caloric Value of HBu / Caloric Value of HiVal / Caloric Value of CH3: unit not given here
# Experimental: The above Formula IV composition was tested to determine its effectiveness as a feed additive for ruminants. The initial tests were in rumen fluid batch culture systems to determine the effect of the compound on volatile fatty acid/methane ratios (VFA/CH4). […] Test Procedure: A 50/50 mixture of ground corn and ground alfalfa was used as the substrate for the subject rumen fluid batch culture test. The compound (Formula IV ) was present in the rumen fluid in three separate test samples at 8.33, 25 and 75 ppm, respectively. On day 1, rumen fluid was obtained from mature fistulated steers on 50/50 concentrate/roughage diets. The rumen fluid (RF) was strained through three layers of gauze cloth and equilibrated with C02 gas. Wheaton serum vials (125 ml) were prepared ahead with 20 ml continuous batch buffer and 100 mg 50/50 ground corn/ground alfalfa. Controls and compounds (dissolved in acetone) were set up according to desired levels. The vials were kept under C02 gas until 20 ml of the strained RF was added. The vials were sealed and incubated at 39°C for 24 hours in a hot water bath. On successive days, gas samples (0.1 ml) were drawn for gas chromatography analysis before transferring 20 ml of the batch culture to another vial containing 20 ml of buffer, 100 mg substrate, and the corresponding compound. The remaining 20 ml was inoculated with 2 ml 6N HC1 and centrifuged at 15,000 rpm for 15 minutes. Ether extracts were prepared for volatile fatty acid (VFA) analysis. Some minor adjustments were made in the termperatures on the Hewlett-Packard 5750 Gas-Liquid Chromatograph used for VFA analysis when the glass column used was changed from 1/4 inch diameter to 1/8 inch diameter. Injection Port = 220°C Column Oven = 170°C Flame Detector = 250°C Only 4 minutes was needed to record the sample instead of the previous 7 minutes.
# [1] = 8.33 μg/ml, total produced on Day 10
substance,measurement,setting,value
"2,2'-(4,5-diphenyl-2H-imidazol-2-ylidene)bispyridine with CuCl2(1/1) [Formula IV Compound]",AA,"8.33 µg/ml, day 2",0.16 µmol/mL
same,CH4,"8.33 µg/ml, day 2",204 µ Moles
same,H2,"8.33 µg/ml, day 2",0 µ Moles
same,HAc (acetate),"8.33 µg/ml, day 2",43.83
same,HBu (butyrate),"8.33 µg/ml, day 2",12.33
same,HFo (formate),"8.33 µg/ml, day 2",1.48
same,HPr (propionate),"8.33 µg/ml, day 2",11.81
same,HiBu (isobutyrate),"8.33 µg/ml, day 2",1.27
same,HiVal (isovalerate),"8.33 µg/ml, day 2",0
same,Protein,"8.33 µg/ml, day 2",0 mg/mL
same,Total,"8.33 µg/ml, day 2",70.71
same,AA,"8.33 µg/ml, day 3",0.13 µmol/mL
same,CH4,"8.33 µg/ml, day 3",157 µ Moles
same,H2,"8.33 µg/ml, day 3",0 µ Moles
same,HAc (acetate),"8.33 µg/ml, day 3",33.35
same,HBu (butyrate),"8.33 µg/ml, day 3",9.87
same,HFo (formate),"8.33 µg/ml, day 3",0.92
same,HPr (propionate),"8.33 µg/ml, day 3",12.17
same,HiBu (isobutyrate),"8.33 µg/ml, day 3",1.14
same,HiVal (isovalerate),"8.33 µg/ml, day 3",1.14
same,Protein,"8.33 µg/ml, day 3",0 mg/mL
same,Total,"8.33 µg/ml, day 3",58.58
same,CH4,"8.33 µg/ml, day 4",164 µ Moles
same,H2,"8.33 µg/ml, day 4",0 µ Moles
same,HAc (acetate),"8.33 µg/ml, day 4",34.54
same,HBu (butyrate),"8.33 µg/ml, day 4",7.77
same,HFo (formate),"8.33 µg/ml, day 4",0.40
same,HPr (propionate),"8.33 µg/ml, day 4",13.16
same,HiBu (isobutyrate),"8.33 µg/ml, day 4",0.68
same,HiVal (isovalerate),"8.33 µg/ml, day 4",2.01
same,Total,"8.33 µg/ml, day 4",58.54
same,CH4,"8.33 µg/ml, day 5",181 µ Moles
same,H2,"8.33 µg/ml, day 5",0 µ Moles
same,HAc (acetate),"8.33 µg/ml, day 5",33.15
same,HBu (butyrate),"8.33 µg/ml, day 5",7.14
same,HFo (formate),"8.33 µg/ml, day 5",0.30
same,HPr (propionate),"8.33 µg/ml, day 5",12.66
same,HiBu (isobutyrate),"8.33 µg/ml, day 5",0.35
same,HiVal (isovalerate),"8.33 µg/ml, day 5",1.17
same,Total,"8.33 µg/ml, day 5",54.76
same,AA,"8.33 µg/ml, day 6",0.11 µmol/mL
same,CH4,"8.33 µg/ml, day 6",176 µ Moles
same,H2,"8.33 µg/ml, day 6",0 µ Moles
same,HAc (acetate),"8.33 µg/ml, day 6",29.32
same,HBu (butyrate),"8.33 µg/ml, day 6",5.69
same,HFo (formate),"8.33 µg/ml, day 6",1.02
same,HPr (propionate),"8.33 µg/ml, day 6",11.08
same,HiBu (isobutyrate),"8.33 µg/ml, day 6",0.46
same,HiVal (isovalerate),"8.33 µg/ml, day 6",0
same,Protein,"8.33 µg/ml, day 6",0 mg/mL
same,Total,"8.33 µg/ml, day 6",47.57
same,AA,"8.33 µg/ml, day 7",0.11 µmol/mL
same,CH4,"8.33 µg/ml, day 7",139 µ Moles
same,H2,"8.33 µg/ml, day 7",0 µ Moles
same,HAc (acetate),"8.33 µg/ml, day 7",29.53
same,HBu (butyrate),"8.33 µg/ml, day 7",4.39
same,HFo (formate),"8.33 µg/ml, day 7",0.73
same,HPr (propionate),"8.33 µg/ml, day 7",13.12
same,HiBu (isobutyrate),"8.33 µg/ml, day 7",0.76
same,HiVal (isovalerate),"8.33 µg/ml, day 7",0.77
same,Protein,"8.33 µg/ml, day 7",0 mg/mL
same,Total,"8.33 µg/ml, day 7",49.29
same,AA,"8.33 µg/ml, day 8",0.09 µmol/mL
same,CH4,"8.33 µg/ml, day 8",158 µ Moles
same,H2,"8.33 µg/ml, day 8",0 µ Moles
same,HAc (acetate),"8.33 µg/ml, day 8",26.19
same,HBu (butyrate),"8.33 µg/ml, day 8",5.49
same,HFo (formate),"8.33 µg/ml, day 8",0.55
same,HPr (propionate),"8.33 µg/ml, day 8",13.48
same,HiBu (isobutyrate),"8.33 µg/ml, day 8",0.65
same,HiVal (isovalerate),"8.33 µg/ml, day 8",2.20
same,Protein,"8.33 µg/ml, day 8",0 mg/mL
same,Total,"8.33 µg/ml, day 8",48.55
same,AA,"8.33 µg/ml, day 9",0.10 µmol/mL
same,CH4,"8.33 µg/ml, day 9",157 µ Moles
same,H2,"8.33 µg/ml, day 9",0 µ Moles
same,HAc (acetate),"8.33 µg/ml, day 9",27.31
same,HBu (butyrate),"8.33 µg/ml, day 9",3.06
same,HFo (formate),"8.33 µg/ml, day 9",0.50
same,HPr (propionate),"8.33 µg/ml, day 9",13.73
same,HiBu (isobutyrate),"8.33 µg/ml, day 9",0.58
same,HiVal (isovalerate),"8.33 µg/ml, day 9",0.55
same,Protein,"8.33 µg/ml, day 9",0 mg/mL
same,Total,"8.33 µg/ml, day 9",45.71
same,AA,"8.33 µg/ml, day 10",0.24 µmol/mL
same,CH4,"8.33 µg/ml, day 10",159 µ Moles
same,H2,"8.33 µg/ml, day 10",0 µ Moles
same,HAc (acetate),"8.33 µg/ml, day 10",24.52
same,HBu (butyrate),"8.33 µg/ml, day 10",2.56
same,HFo (formate),"8.33 µg/ml, day 10",0.23
same,HPr (propionate),"8.33 µg/ml, day 10",12.89
same,HiBu (isobutyrate),"8.33 µg/ml, day 10",0.21
same,HiVal (isovalerate),"8.33 µg/ml, day 10",0.05
same,Protein,"8.33 µg/ml, day 10",0 mg/mL
same,Total,"8.33 µg/ml, day 10",40.45
same,Caloric Value of CH3,"8.33 µg/ml, produced on Day 10",33.54
same,Caloric Value of H2,"8.33 µg/ml, produced on Day 10",0
same,Caloric Value of HAc,"8.33 µg/ml, produced on Day 10",90.96
same,Caloric Value of HBu,"8.33 µg/ml, produced on Day 10",21.42
same,Caloric Value of HFo,"8.33 µg/ml, produced on Day 10",0
same,Caloric Value of HPr,"8.33 µg/ml, produced on Day 10",87.89
same,Caloric Value of HiBu,"8.33 µg/ml, produced on Day 10",0
same,Caloric Value of HiVal,"8.33 µg/ml, produced on Day 10",0
same,"Caloric Value, Total (VFA's)","8.33 µg/ml, produced on Day 10",200.27
same,Total Cal in VFA & Gas,"8.33 µg/ml, produced on Day 10",233.79 cal
same,CH4 produced on Day 10,[1],159
same,H2 produced on Day 10,[1],0
same,HAc (acetate) produced on Day 10,[1],434.4
same,HBu (butyrate) produced on Day 10,[1],41.2
same,HFo (formate) produced on Day 10,[1],0
same,HPr (propionate) produced on Day 10,[1],240.8
same,HiBu (isobutyrate) produced on Day 10,[1],0
same,HiVal (isovalerate) produced on Day 10,[1],0
same,Total VFA's produced on Day 10,[1],716.4
same,methane production,"25 µg/ml, by day 10",seemed to be recovering
same,AA,"25 µg/ml, day 2",0.16 µ Moles/ml
same,CH4,"25 µg/ml, day 2",197 µ Moles
same,H2,"25 µg/ml, day 2",0 µ Moles
same,HAc (acetate),"25 µg/ml, day 2",46.39
same,HBu (butyrate),"25 µg/ml, day 2",10.94
same,HFo (formate),"25 µg/ml, day 2",1.24
same,HPr (propionate),"25 µg/ml, day 2",12.69
same,HiBu (isobutyrate),"25 µg/ml, day 2",1.66
same,HiVal (isovalerate),"25 µg/ml, day 2",2.55
same,Protein,"25 µg/ml, day 2",0 mg/mL
same,Total,"25 µg/ml, day 2",75.45
same,AA,"25 µg/ml, day 3",0.17 µ Moles/ml
same,CH4,"25 µg/ml, day 3",166 µ Moles
same,H2,"25 µg/ml, day 3",0 µ Moles
same,HAc (acetate),"25 µg/ml, day 3",35.36
same,HBu (butyrate),"25 µg/ml, day 3",7.27
same,HFo (formate),"25 µg/ml, day 3",1.05
same,HPr (propionate),"25 µg/ml, day 3",12.93
same,HiBu (isobutyrate),"25 µg/ml, day 3",1.21
same,HiVal (isovalerate),"25 µg/ml, day 3",0.59
same,Protein,"25 µg/ml, day 3",0 mg/mL
same,Total,"25 µg/ml, day 3",58.40
same,CH4,"25 µg/ml, day 4",164 µ Moles
same,H2,"25 µg/ml, day 4",0 µ Moles
same,HAc (acetate),"25 µg/ml, day 4",36.52
same,HBu (butyrate),"25 µg/ml, day 4",6.38
same,HFo (formate),"25 µg/ml, day 4",0.71
same,HPr (propionate),"25 µg/ml, day 4",14.32
same,HiBu (isobutyrate),"25 µg/ml, day 4",0.86
same,HiVal (isovalerate),"25 µg/ml, day 4",1.33
same,Total,"25 µg/ml, day 4",60.11
same,CH4,"25 µg/ml, day 5",170 µ Moles
same,H2,"25 µg/ml, day 5",0 µ Moles
same,HAc (acetate),"25 µg/ml, day 5",34.06
same,HBu (butyrate),"25 µg/ml, day 5",6.63
same,HFo (formate),"25 µg/ml, day 5",0.44
same,HPr (propionate),"25 µg/ml, day 5",14.87
same,HiBu (isobutyrate),"25 µg/ml, day 5",0.56
same,HiVal (isovalerate),"25 µg/ml, day 5",0.78
same,Total,"25 µg/ml, day 5",57.33
same,AA,"25 µg/ml, day 6",0.11 µ Moles/ml
same,CH4,"25 µg/ml, day 6",143 µ Moles
same,H2,"25 µg/ml, day 6",0 µ Moles
same,HAc (acetate),"25 µg/ml, day 6",28.98
same,HBu (butyrate),"25 µg/ml, day 6",4.26
same,HFo (formate),"25 µg/ml, day 6",0.68
same,HPr (propionate),"25 µg/ml, day 6",13.87
same,HiBu (isobutyrate),"25 µg/ml, day 6",0.53
same,HiVal (isovalerate),"25 µg/ml, day 6",0.20
same,Protein,"25 µg/ml, day 6",0.01 mg/mL
same,Total,"25 µg/ml, day 6",48.49
same,AA,"25 µg/ml, day 7",0.24 µ Moles/ml
same,CH4,"25 µg/ml, day 7",58 µ Moles
same,H2,"25 µg/ml, day 7",8 µ Moles
same,HAc (acetate),"25 µg/ml, day 7",22.54
same,HBu (butyrate),"25 µg/ml, day 7",5.02
same,HFo (formate),"25 µg/ml, day 7",0.61
same,HPr (propionate),"25 µg/ml, day 7",13.54
same,HiBu (isobutyrate),"25 µg/ml, day 7",0.75
same,HiVal (isovalerate),"25 µg/ml, day 7",0.51
same,Protein,"25 µg/ml, day 7",0 mg/mL
same,Total,"25 µg/ml, day 7",42.95
same,AA,"25 µg/ml, day 8",0.22 µ Moles/ml
